From US10766869B2, “Triazoles for the treatment of demyelinating dieases” (Vertex Pharmaceuticals Incorporated, priority 2015, dated 2020) come the findings set out here.

Like-named read-outs stand apart in the source and are kept apart here.

The test concerns primary rat mixed cortical cells. As to the kind of experiment: In vitro myelination assay (MBP positive myelin strands, fold myelin pixels above background). It is filed as cell-based. As to conditions: Rattus norvegicus; for fold induction at 1 µM: 1.0 μM compound; for fold induction at 10 µM: 10.0 μM compound. The text has this:
In Vitro Myelination Assay
Compounds were screened for their ability to induce myelination using a primary rat mixed cortical cell culture assay, which contains neurons, oligodendrocyte precursor cells, oligodendrocytes, astrocytes and microglia. The assay quantifies myelination by measuring myelin basic protein (MBP) immunofluorescent positive myelin strands from images taken using a Cellomics Array Scan (model Arrayscan VTI HCS Reader) or a Molecular Devices Image Xpress (model IXM XL) high content imager. The myelin strands were quantitated using a custom created myelin detection software program. Test compounds were dissolved in DMSO to make a 10 mM initial stock solution. Dilutions were made in myelination medium to obtain the final solutions for the assay and were tested in primary rat mixed cortical cells at selected doses.
Primary rat mixed cortical cells were prepared from harvested cerebral cortices from postnatal day 1 (P1) rats (P1 Rat CD® IGS pups) were purchased from Charles River) in Complete Dissociation Medium, wherein the meninges were removed and the cortical tissue chopped with a razor blade into ˜1 mm^3 pieces. Tissue from 1-3 pups was collected and placed into 15 ml conical tubes in a total volume of 5 ml of Complete Dissociation Medium. Activated papain (3 ml) was added to each 15 ml conical tube and tissue was incubated at 37° C. for 30 minutes. After the 30 minute incubation, DNase (Sigma D4527; 75 μl of a 1 mg/ml stock) was added to each tube, followed by mechanical trituration using a 2 ml serological pipette and autopipettor to gently dissociate the tissue. Following trituration, larger tissue pieces were allowed to settle by gravity, and the supernatant containing dissociated cells was transferred to a 50 ml conical tube with 4 ml of trypsin inhibitor. Cells were pelleted by centrifugation, resuspended in myelination medium and filtered through a 40 μm filter. Cells were then seeded in 96-well plates (BD Biosciences, Black, PDL-coated, Cat. No. 356640) at 87,500-95,000 cells/well in a final volume of 200 μl of Myelination Medium in the presence or absence of compound and cultured for 14 days in a humidified 37° C. incubator with 5% CO2. Half the medium was removed and replaced with fresh medium containing 1× compound on days 6 and 10. Using a Biotek automatic plate washer (model Biomek® FXP Laboratory Automation Workstation), cells were fixed with 4% paraformaldehyde on day 14, washed with PBS and blocked in 5% normal goat serum (Vector Laboratories, S-1000) in 0.1% PBS-TritonX-100 (PBST) for 1 hour. Cells were stained with 1:500 anti-MBP (Covance, cat # SMI99) primary antibody in 1% normal goat serum in 0.1% PBST for 2 hours at room temperature followed by 2 washes with PBST. A final incubation in secondary antibody (1:1000, Invitrogen, Alexa-488 anti-mouse IgG2b) and 1:10,000 Hoechst dye in 1% normal goat serum in 0.1% PBST was performed for 2 hours at room temperature. Plates were washed with PBS and then scanned on a Cellomics Array Scan using a 10× objective (25 images per well) or the Image Xpress using a 10× objective (9 image per well). Images were analyzed using Vertex myelin detection software (described below) to quantify total MBP myelin pixels per well. Fold myelin pixels above background at two concentrations (1.0 μM and 10.0 μM) relative to baseline of no added compound are reported below in Table 4. Standard deviation for each compound concentration was calculated using all replicates and using a standard deviation formula commonly used in the art.
One of skill in the art would recognize that for this type of primary neuronal mixed cell assay variability between different assay runs is to be expected even though the protocol is the same for each assay run. For instance, variability may be due to small differences in cell viability, cell density, age of the animals, etc.
Vertex Myelin Detection Software: […]

[1] abbreviates: read-out: Fold myelin pixels above background relative to baseline of no added compound.
The mark [2] stands for this setting: relative to baseline of no added compound, read-out: Fold myelin pixels above background.
Where [3] appears, read: relative to baseline of no added compound, read-out: Fold myelin pixels above background, 1.0 μM.
Setting [4] is: relative to baseline of no added compound, read-out: Fold myelin pixels above background, 10.0 μM.

Turning to `N#Cc1cc(Nc2ncn(-c3cc(F)cc(F)c3)n2)nc(N2CCN(C3COC3)CC2)c1` [Compound 853, 2-[[1-(3,5-difluorophenyl)-1,2,4-triazol-3-yl]amino]-6-[4-(oxetan-3-yl)piperazin-1-yl]pyridine-4-carbonitrile], under setting [1], the fold induction at 1 µM was in the range of 1 to 10 and the fold induction at 10 µM lay in the range of 10 to 100.
Consider `Cc1cc(Nc2ncn(-c3cc(F)cc(F)c3)n2)cc(N2CC(N3CC4CC(C3)O4)C2)c1` [Compound 742, 1-(3,5-difluorophenyl)-N-[3-methyl-5-[3-(6-oxa-3-azabicyclo[3.1.1]heptan-3-yl)azetidin-1-yl]phenyl]-1,2,4-triazol-3-amine], for which, under setting [2], the fold induction at 1 µM is 10 to 100 and the fold induction at 10 µM was not above 1.
On to `Cc1cc(Nc2ncn(-c3ccccc3)n2)cc(N2C[C@@H]3C[C@H]2CN3C2CC2)c1` [Compound 292, N-[3-[(1S,4S)-2-cyclopropyl-2,5-diazabicyclo[2.2.1]heptan-5-yl]-5-methyl-phenyl]-1-phenyl-1,2,4-triazol-3-amine], for which, under setting [3], the fold induction at 1 µM lay within 100 to 1000. In addition, the fold induction at 10 µM under setting [4] is 10 to 100.
Regarding `Cc1cc(Nc2ncn(-c3ccc(F)c(F)c3)n2)cc(N2CC(N3CCOCC3)C2)c1` [Compound 720, 1-(3,4-difluorophenyl)-N-[3-methyl-5-(3-morpholinoazetidin-1-yl)phenyl]-1,2,4-triazol-3-amine], under setting [2], the fold induction at 1 µM was in the range of 1 to 10 and the fold induction at 10 µM is 10 to 100.
Regarding `Cc1cc(Nc2ncn(-c3cc(F)cc(F)c3)n2)cc(N2CC(N3CCOC[C@@H]3C)C2)c1` (single isomer, unassigned) [Compound 800], under setting [1], the fold induction at 1 µM was 10 to 100 and the fold induction at 10 µM is 10 to 100.
On to `Cc1cc(Nc2ncn(-c3ccccc3)n2)cc(N2CCNC([C@](C)(O)C(C)C)C2)n1` (stereo partly drawn) [Compound 57, (2R)-3-methyl-2-[4-[6-methyl-4-[(1-phenyl-1,2,4-triazol-3-yl)amino]-2-pyridyl]piperazin-2-yl]butan-2-ol], for which the fold induction at 1 µM under setting [3] was 100 to 1000. For the same compound, the fold induction at 10 µM under setting [4] was not above 1.
Turning to `Clc1cc(Nc2ncn(-c3ccccc3)n2)cc(N2CCOCC2)n1` [Compound 135, 2-chloro-6-morpholino-N-(1-phenyl-1,2,4-triazol-3-yl)pyridin-4-amine], the fold induction at 1 µM under setting [3] was in the range of 1000 to 10000. In addition, under setting [4], the fold induction at 10 µM is not above 1.
The like results for `Cc1cc(Nc2ncn(-c3cc(F)cc(F)c3)n2)cc(N2CCN(C(C)(CO)CO)CC2)c1` [Compound 311, 2-[4-[3-[[1-(3,5-difluorophenyl)-1,2,4-triazol-3-yl]amino]-5-methyl-phenyl]piperazin-1-yl]-2-methyl-propane-1,3-diol] were, in that order, not above 1 and not above 1.
In the case of `CCOCCOC1CCN(c2cc(C)cc(Nc3ncn(-c4cc(F)cc(F)c4)n3)c2)CC1` [Compound 962, 1-(3,5-difluorophenyl)-N-[3-[4-(2-ethoxyethoxy)-1-piperidyl]-5-methyl-phenyl]-1,2,4-triazol-3-amine], under setting [1], the fold induction at 1 µM fell in the range of 1 to 10 and the fold induction at 10 µM lay within 1 to 10.
For the compound `CC(C)(C)c1cc(Nc2ncn(-c3cnccn3)n2)cc(N2CCN(C3COC3)CC2)c1` [Compound 288, N-[3-tert-butyl-5-[4-(oxetan-3-yl)piperazin-1-yl]phenyl]-1-pyrazin-2-yl-1,2,4-triazol-3-amine], the fold induction at 1 µM under setting [3] lay within 1000 to 10000. The fold induction at 10 µM under setting [4] was 1000 to 10000.
For the compound `Cc1cc(Nc2ncn(-c3ccnnc3)n2)cc(N2CCN(C)CC2)c1` [Compound 399, N-[3-methyl-5-(4-methylpiperazin-1-yl)phenyl]-1-pyridazin-4-yl-1,2,4-triazol-3-amine], under setting [2], the fold induction at 1 µM is 10 to 100 and the fold induction at 10 µM was 1 to 10.
For the compound `Cc1cc(NC(=O)C2CC2)cc(Nc2ncn(-c3ccccc3)n2)c1` [Compound 1058, N-[3-methyl-5-[(1-phenyl-1,2,4-triazol-3-yl)amino]phenyl]cyclopropanecarboxamide], under setting [1], the fold induction at 1 µM is 10 to 100 and the fold induction at 10 µM is 10 to 100.
